The nature of data set [1]: xn = mol fraction of the nth substance listed. The conditions noted are these: 100 kPa, Liquid, x1 = 1; for speed of sound: Frequency=3 MHz, Sing-around technique in a fixed-path interferometer; for mass density: Vibrating tube method.
For data set [2] the following is noted: 100 kPa, Liquid; for speed of sound: Frequency=3 MHz, Sing-around technique in a fixed-path interferometer; for mass density: Vibrating tube method.

± gives the expanded uncertainty stated by the source.

Consider `CCn1cc[n+](C)c1.F[B-](F)(F)F` [1-ethyl-3-methylimidazolium tetrafluoroborate] + Nc1ccccc1, for which the speed of sound – broadly, the propagation velocity of pressure waves in the medium – in data set [1] (293.15 K) was 1632.6 ± 2.4 m/s; in data set [1] (303.15 K), 1609.5 ± 2.4 m/s; in data set [1] (313.15 K) it was 1586.2 ± 2.4 m/s; in data set [1] (323.15 K), 1563.4 ± 2.3 m/s. Moreover, the mass density – broadly, the mass of a sample divided by its volume – in data set [1] (293.15 K) was 1283.64 ± 1.7 kg/m3; in data set [1] (303.15 K), 1276.12 ± 1.7 kg/m3; in data set [1] (313.15 K), 1268.57 ± 1.6 kg/m3; in data set [1] (323.15 K) it was 1261.04 ± 1.6 kg/m3.

On to `CCn1cc[n+](C)c1.F[B-](F)(F)F` [1-ethyl-3-methylimidazolium tetrafluoroborate], for which the speed of sound stood at 1632.6 ± 2.4 m/s in data set [2] (293.15 K), 1609.5 ± 2.4 m/s in data set [2] (303.15 K), 1586.2 ± 2.4 m/s in data set [2] (313.15 K) and 1563.4 ± 2.3 m/s in data set [2] (323.15 K). The mass density in data set [2] (293.15 K) is 1283.64 ± 1.7 kg/m3; in data set [2] (303.15 K) it was 1276.12 ± 1.7 kg/m3; in data set [2] (313.15 K), 1268.57 ± 1.6 kg/m3; in data set [2] (323.15 K), 1261.04 ± 1.6 kg/m3.

(Values after the NIST ThermoML archive (doi:10.1016/j.jct.2016.09.028).)
